Values quoted from earlier work, collected in article PMC9959726 (Molecules, 2023).
Like-named read-outs stand apart in the source and are kept apart here.

Tests used:
[1] = from P. thellungiana
CYP-1A2 = system: CYP-1A2; set-up: method as in PMID 34377680; settings: for Effect on CYP 1A2: from P. anisum root
[2] = set-up: method as in PMID 30704124
[3] = for antioxidant activity: compounds obtained from P. saxifraga; for antioxidant property: from P. brachycarpa
DNA = settings: compounds obtained from P. saxifraga
α-amylase = settings: from P. anthriscoides
α-glycosidase = settings: for α-glucosidase inhibition: from P. anthriscoides; for α-glucosidase inhibitory: from P. candolleana
AChE = settings: from P. anthriscoides
BChE = settings: from P. anthriscoides
BEAS-2B and HepG2 cells = settings: PM2.5-induced BEAS-2B and HepG2 cells
MCF-7 cells = system: MCF-7 cells; set-up: method as in PMID 29959054; settings: from P. haussknechtii fruit; read-out: Cytotoxicity against MCF-7 cell, IC50
pestiferous pests = system: pestiferous pests; set-up: method as in PMID 29029251, PMID 29029346

In the case of `CCOC(c1cc(OC)ccc1OC(=O)C(C)CC)C(C)O` (stereo not drawn) [compound 2, 2-(1′-ethoxy-2′-hydroxy)propyl-4-methoxyphenyl-2-methyl-butyrate], the antihypertensive activity [1] is given as “significant antihypertensive activity”.

For `COc1c2ccoc2cc2oc(=O)ccc12` [Bergapten (256)], the “Effect on CYP 1A2” value (CYP-1A2) is listed as “Inhibitory effects on CYP 1A2”.

For umbelliprenin [compound 276], the skin whitening [2] is given as “potential skin-whitening agent”.

For `CCC(=O)c1ccc(OC)cc1O` [compound 49, 1-(2-hydroxy-4-methoxyphenyl)propan1-one], the antioxidant activity [3] is listed as “antioxidant activity” and the DNA protection potential (DNA) is listed as “DNA protection potential”.

In the case of `CCOC(c1cc(OC)ccc1O)C(C)O` (stereo not drawn) [compound 1, 2-(1′-ethoxy-2′-hydroxy)propyl-4-methoxyphenol], the antihypertensive activity [1] is listed as “significant antihypertensive activity”.

In the case of `O=C(O)CC(O)(CC(=O)O)C(=O)O` [compound 338, citric acid], the antioxidant ([3]; from P. anthriscoides) is given as “proven antioxidant”, the α-amylase inhibition (α-amylase) is given as “inhibiting” and the α-glucosidase inhibition (α-glycosidase) is given as “inhibiting”. The AChE inhibition (AChE) was “inhibiting” and the BChE inhibition (BChE) was “inhibiting”.

For `CC=Cc1ccc(OC)cc1` (stereo in doubt) [compound 40, cis-anethole], the “reduction of IL-8 level” value (BEAS-2B and HepG2 cells) is given as 87%.

For `COc1ccc(C=CC=O)cc1` [compound 50, 4-methoxycinnamaldehyde], the antioxidant activity [3] is given as “antioxidant activity” and the DNA protection potential (DNA) is given as “DNA protection potential”.

In the case of `COc1c2ccoc2cc2oc(=O)ccc12` [compound 256, bergapten], the CYP-1A2 inhibition (CYP-1A2) is listed as “inhibitors”.

In the case of `CCC(C=CC(C)C1CCC2C3CC=C4CC(OC(C)=O)CCC4(C)C3CCC12C)C(C)C` (stereo not drawn) [compound 294, Stigmasta-5, 22-dien-3-olacetate], the antioxidant ([3]; from P. candolleana) is listed as “effective antioxidant” and the α-glucosidase inhibitory (α-glycosidase) is listed as “α-glucosidase inhibitory”.

For `CC(C)=CC(C)(O)C1OC(=O)Cc2oc(C)cc(=O)c21` (stereo not drawn) [Pimpinelol (205)], the IC50 (MCF-7 cells) is listed as 1060 nM.

For `COc1c2ccoc2c(OC)c2oc(=O)ccc12` [compound 274, isopimpinellin], the CYP-1A2 inhibition (CYP-1A2) is given as “inhibitors”.

For `CC[C@H](/C=C/[C@@H](C)[C@H]1CC[C@H]2[C@@H]3CC=C4C[C@@H](O)CC[C@]4(C)[C@H]3CC[C@]12C)C(C)C` [compound 296, stigmasterol], the antioxidant ([3]; from P. candolleana) is given as “effective antioxidant” and the α-glucosidase inhibitory (α-glycosidase) is given as “α-glucosidase inhibitory”.

For `CC[C@H](CC[C@@H](C)[C@H]1CC[C@H]2[C@@H]3CC=C4C[C@@H](O[C@@H]5O[C@H](CO)[C@@H](O)[C@H](O)[C@H]5O)CC[C@]4(C)[C@H]3CC[C@]12C)C(C)C` [compound 295, daucosterol], the antioxidant ([3]; from P. candolleana) is given as “effective antioxidant” and the α-glucosidase inhibitory (α-glycosidase) is given as “α-glucosidase inhibitory”.

For p-anisaldehyde [compound 47], the antioxidant activity [3] is given as “antioxidant activity”, the DNA protection potential (DNA) is given as “DNA protection potential” and the reproduction of pests (pestiferous pests) is given as “inhibiting the reproduction of pests”.

For `CC(=O)C(C)CCC(C)C1CCC2(C)C3CCC4C(C)(C)CCCC4(C)C3CCC12C` (stereo not drawn) [compound 297, 24ζ-Methyl-5R-lanosta-25-one], the antioxidant property [3] is given as “antioxidant property”.

In the case of `COc1c2occc2cc2ccc(=O)oc12` [methoxsalen (275)], the “Effect on CYP 1A2” value (CYP-1A2) is given as “Inhibitory effects on CYP 1A2”.

In the case of `C=CCc1cc2c(c(OC)c1OC)OCO2` [compound 51, dillapiole], the antioxidant activity [3] is listed as “antioxidant activity” and the DNA protection potential (DNA) is listed as “DNA protection potential”.

In the case of `O=C(O)C(O)Cc1ccccc1` (stereo not drawn) [compound 337, 3-phenyllactic acid], the antioxidant ([3]; from P. anthriscoides) is listed as “proven antioxidant”, the α-amylase inhibition (α-amylase) is listed as “inhibiting” and the α-glucosidase inhibition (α-glycosidase) is listed as “inhibiting”. For the same molecule, the AChE inhibition (AChE) was “inhibiting” and the BChE inhibition (BChE) was “inhibiting”.

In the case of `CC(=O)[C@H]1CC[C@H]2[C@@H]3CC=C4C[C@@H](O)CC[C@]4(C)[C@H]3CC[C@]12C` [compound 298, pregnenolone], the antioxidant property [3] is listed as “antioxidant property”.

In the case of `COc1c2ccoc2c(OC)c2oc(=O)ccc12` [isopimpinellin (274)], the “Effect on CYP 1A2” value (CYP-1A2) is listed as “Inhibitory effects on CYP 1A2”.

For `COC(=O)/C=C/c1ccccc1O` [compound 48, methyl-O-coumarate], the antioxidant activity [3] is given as “antioxidant activity” and the DNA protection potential (DNA) is given as “DNA protection potential”.
